Assay results published in patent publication US20260042774A1, “CAMPTOTHECIN-7-ETHYLAMINE DERIVATIVE, PREPARATION METHOD THEREFOR, AND USE THEREOF” (HANGZHOU ADCORIS BIOPHARMA CO., LTD, priority 2022, published 2026).
Like-named read-outs stand apart in the source and are kept apart here.

Legend:
Assay type in all cases: cell-based
[1] = tested on: Human esophageal cancer cells OE33; test: Tumor cell growth inhibitory activity (CCK-8), OE33
Method: (§1) Human esophageal cancer cells OE33 (human breast adenocarcinoma cells SK-BR-3, or human gastric cancer cells NCI-N87) was cultured in RPMI1640 (Cellmax) supplemented with 10% fetal bovine serum (Cellmax). Cells in the exponential growth phase were diluted to a concentration of 1×10^5 cells/mL by culture medium and added to 96-well cell culture plates at 100 μL per well, then returned back and incubated overnight in a 37° C. incubator with 5% CO2. On the following day, the compounds were diluted to concentrations of 10000 nM, 2000 nM, 400 nM, 80 nM, 16 nM, 3.2 nM, 0.64 nM, and 0.13 nM by culture medium and the diluted compounds were added to the 96-well cell culture plates at 2 μL per well, with three replicate wells for each concentration. Negative control and blank control groups without addition of compounds were added with 2 μL of the dilution liquid per well. After the addition of the compounds, the plates were returned back to the 37° C. incubator with 5% CO2 to continue the incubation for 72 h. After the incubation, the cell culture plates were removed, and the culture medium was aspirated using a pipette. Then, 100 μL of culture medium containing 10% CCK-8 was added to each well, and the plates were incubated at 37° C. for 3 h. After the incubation, the plates were removed, kept in the dark, and placed in an ELISA plate. Absorbance was measured at 630 nm as the reference wavelength and 450 nm as the test wavelength. The IC50 values (Table 2) were calculated using the four-parameter logistic regression method in GraphPad.

[2] = tested on: human breast adenocarcinoma cells SK-BR-3; test: Tumor cell growth inhibitory activity (CCK-8), SK-BR-3
Method: as §1

[3] = tested on: human gastric cancer cells NCI-N87; test: Tumor cell growth inhibitory activity (CCK-8), NCI-N87
Method: as §1

[4] = tested on: NCI-H1975; test: Tumor cell growth inhibitory activity, NCI-H1975
[5] = tested on: MDA-MB-231; test: Tumor cell growth inhibitory activity, MDA-MB-231; conditions: Homo sapiens
[6] = read-out: IC50 (nM) for inhibiting the growth of tumor cells, OE33, OE33 cells, 72 h incubation, CCK-8
[7] = read-out: IC50 (nM) for inhibiting the growth of tumor cells, SK-BR-3, SK-BR-3 cells, 72 h incubation, CCK-8
[8] = read-out: IC50 (nM) for inhibiting the growth of tumor cells, NCI-N87, NCI-N87 cells, 72 h incubation, CCK-8
[9] = Homo sapiens, NCI-H1975, read-out: IC50 (nM) for inhibiting the growth of tumor cells, NCI-H1975, NCI-H1975 cells
[10] = MDA-MB-231, read-out: IC50 (nM) for inhibiting the growth of tumor cells, MDA-MB-231, MDA-MB-231 cells
[11] = Homo sapiens, OE33, 72 h, read-out: IC50 (nM) for inhibiting the growth of tumor cells, OE33, OE33 cells, 72 h incubation, CCK-8
[12] = Homo sapiens, SK-BR-3, 72 h, read-out: IC50 (nM) for inhibiting the growth of tumor cells, SK-BR-3, SK-BR-3 cells, 72 h incubation, CCK-8
[13] = Homo sapiens, NCI-N87, 72 h, read-out: IC50 (nM) for inhibiting the growth of tumor cells, NCI-N87, NCI-N87 cells, 72 h incubation, CCK-8
[14] = Homo sapiens, OE33 cells, 72 h incubation, CCK-8, read-out: IC50 (nM) for inhibiting the growth of tumor cells, OE33
[15] = Homo sapiens, SK-BR-3 cells, 72 h incubation, CCK-8, read-out: IC50 (nM) for inhibiting the growth of tumor cells, SK-BR-3
[16] = Homo sapiens, NCI-N87 cells, 72 h incubation, CCK-8, read-out: IC50 (nM) for inhibiting the growth of tumor cells, NCI-N87
[17] = Homo sapiens, NCI-H1975 cells, read-out: IC50 (nM) for inhibiting the growth of tumor cells, NCI-H1975
[18] = MDA-MB-231 cells, read-out: IC50 (nM) for inhibiting the growth of tumor cells, MDA-MB-231

Row | Compound | IC50 [1, 6] [nM] | IC50 [2, 7] [nM] | IC50 [3, 8] [nM] | IC50 [4, 9] [nM] | IC50 [5, 10] [nM] | IC50 ([4]; read-out: IC50 (nM) for inhibiting the growth of tumor cells, NCI-H1975, NCI-H1975 cells) [nM] | IC50 [1, 11] [nM] | IC50 [2, 12] [nM] | IC50 [3, 13] [nM] | IC50 [1, 14] [nM] | IC50 [2, 15] [nM] | IC50 [3, 16] [nM] | IC50 [4, 17] [nM] | IC50 [5, 18] [nM]
1 | CC[C@@]1(O)C(=O)OCc2c1cc1n(c2=O)Cc2c-1nc1cc3c(cc1c2CCNCCOC)OCO3 [Compound 17, 7-(2-(2-Methoxyethyl)amino)ethyl-10,11-methylenedioxycamptothecin] | 2.49 | 6.53 | 0.7 | 9.09 | 103 | – | – | – | – | – | – | – | – | –
2 | CC[C@@]1(O)C(=O)OCc2c1cc1n(c2=O)Cc2c-1nc1cc3c(cc1c2CCN[C@@H](C)CCO)OCO3 [Compound 18, 7-(2-((S)-4-Hydroxybutyl-2-yl)amino)ethyl-10,11-methylenedioxycamptothecin] | 20.4 | 17.1 | 3.63 | – | 446 | 222 | – | – | – | – | – | – | – | –
3 | CC[C@@]1(O)C(=O)OCc2c1cc1n(c2=O)Cc2c-1nc1cc3c(cc1c2CCNCC(F)F)OCO3 [Compound 24, 7-(2-(2-Difluoroethyl)amino)ethyl-10,11-methylenedioxycamptothecin] | – | – | – | 15.6 | 78.2 | – | 0.56 | 2.96 | 0.24 | – | – | – | – | –
4 | CC[C@@]1(O)C(=O)OCc2c1cc1n(c2=O)Cc2c-1nc1cc3c(cc1c2CCNC1CCOCC1)OCO3 [Compound 25, 7-(2-(Tetrahydropyran-4-yl)amino)ethyl-10,11-methylenedioxycamptothecin] | – | – | – | 15.8 | 21.3 | – | 4.89 | 4.96 | 0.46 | – | – | – | – | –
5 | CC[C@@]1(O)C(=O)OCc2c1cc1n(c2=O)Cc2c-1nc1cc3c(cc1c2CCNC1CCC(OC)CC1)OCO3 (stereo partly shown) [Compound 27, 7-(2-(4-Methoxycyclohexyl)amino)ethyl-10,11-methylenedioxycamptothecin] | – | – | – | 30.2 | 155 | – | 7.9 | 26.1 | 2.91 | – | – | – | – | –
6 | CC[C@@]1(O)C(=O)OCc2c1cc1n(c2=O)Cc2c-1nc1cc3c(cc1c2CCN[C@@H](C)CN=[N+]=[N-])OCO3 [Compound 29, 7-(2-((S)-Azidoisopropyl)amino)ethyl-10,11-methylenedioxycamptothecin] | – | – | – | 5.56 | 32.7 | – | 1.4 | 2 | 0.84 | – | – | – | – | –
7 | CC[C@@]1(O)C(=O)OCc2c1cc1n(c2=O)Cc2c-1nc1cc3c(cc1c2CCN(C(=O)CO)[C@@H](C)COC)OCO3 [Compound 30, 7-(2-(N-Hydroxyacetyl((S)-methoxyisopropyl))amino)ethyl-10,11-methylenedioxycamptothecin] | – | – | – | – | – | – | – | – | – | 6.47 | 6.23 | 1.56 | 15.4 | 98.5
8 | CC[C@@]1(O)C(=O)OCc2c1cc1n(c2=O)Cc2c-1nc1cc3c(cc1c2CCN[C@@H]1CCOC1)OCO3 [Compound 34, 7-(2-(N-(R)-Tetrahydrofuran-3-ylamino))ethyl-10,11-methylenedioxycamptothecin] | – | – | – | 14.4 | 41.8 | – | 2.94 | 0.45 | 54.2 | – | – | – | – | –
9 | CC[C@@]1(O)C(=O)OCc2c1cc1n(c2=O)Cc2c-1nc1cc3c(cc1c2CCN[C@H]1CCOC1)OCO3 [Compound 35, 7-(2-(N-(S)-Tetrahydrofuran-3-ylamino))ethyl-10,11-methylenedioxycamptothecin] | – | – | – | 18.5 | 73.5 | – | 2.18 | 0.87 | 54 | – | – | – | – | –
10 | C[C@@]1(O)C(=O)OCc2c1cc1n(c2=O)Cc2c-1nc1cc3c(cc1c2CCNC(=O)C(F)F)OCO3 [Compound 36, 7-(2-Difluoroacetylamino)ethyl-10,11-methylenedioxycamptothecin] | – | – | – | – | – | – | – | – | – | 7.24 | 2.8 | 7.66 | 38.7 | 110
11 | CC[C@@]1(O)C(=O)OCc2c1cc1n(c2=O)Cc2c-1nc1cc3c(cc1c2CCNCCOC)OCCO3 [Compound 42, 7-(2-(2-Methoxyethyl)amino)ethyl-10,11-ethylenedioxycamptothecin] | – | – | – | – | – | – | – | – | – | 9.95 | 18 | 9.96 | 26.6 | 94.8
